In patent US8933244B2, “Stabilized active halogen solutions” (Lonza Inc., priority 2009, dated 2015):

Tests used:
[1] = tested on: Enterobacter aerogenes (ATCC 13048) and Pseudomonas aeruginosa (ATCC 15442); assay: Biocidal efficacy in paper pulp slurry (modified ASTM E: 1839-07); type: cell-based; settings: 2 ppm total Cl2, 3 h, 34° C., DMH 1.81 ppm alone
Protocol: The conditions of the experiment were a modification of the method described in ASTM E: 1839-07. A 1% pulp slurry was prepared via shredding white laser printer paper and adding to an appropriate amount of 400 ppm alkalinity (as CaCO3) water solution. The slurry was rapidly mixed while heating to 98(±2) ° C., followed by cooling to room temperature. The pH was adjusted to 8.5 with 1N H2SO4 and the slurry was diluted to 0.5% with deionized water. A 98(±1) mL aliquot was transferred to a 125 mL sample flask and steam sterilized and cooled to room temperature prior to use.
Stock solutions of NaOCl at either 51,000 ppm or 400 ppm (as Cl2) were freshly prepared prior to the organism challenge test. Dilutions of the test samples were made in order to prepare a sample solution at the desired Cl2:Active Ingredient molar ratio and the flasks were dosed according to the target total Cl2 desired (2 ppm total Cl2).
Twenty four hour cultures of Enterobacter aerogenes (ATCC 13048) and Pseudomonas aeruginosa (ATCC 15442) were used for the testing. Microbiological counts were performed using tryptic soy agar (TSA) […] by known pour plate techniques. Final bacterial concentration of the inoculum was between 2×10^6 and 1×10^7 CFU/mL. 1 mL of the inoculum was then placed into each of the sample to be tested and the samples placed onto a shaker for 3 hours at 34° C. After the 3 hour contact time, DIFCO Dey-Engley (D/E) Neutralizing Broth was used as the first serial dilution tube for biocide neutralization and dilutions were plated through 10^6.

[2] = Continuous flow mixing of stabilizer solution with sodium hypochlorite: temperature excursion and pH change; type: physicochemical; settings: for ΔpH: 12.2% NaOCl (initial pH 12.6); for ΔT: 12.2% NaOCl
Protocol: For each data point, the combined flow rates of the stabilizer and hypochlorite solutions were adjusted in order to maintain the desired molar ratio of NaOCl to active ingredient (A.I.). The solution temperature was recorded before the onset of flow and after combination with the hypochlorite solution. In addition, the final pH of the resulting collected solution was recorded after a 2 min interval of continuous flow.
Stabilizer solutions of the present invention were prepared via dissolution of at least one substituted N-hydrogen compound (DMH=5,5-dimethylhydantoin and/or Amine=ethanolamine, morpholine) (i), and of at least one additional containing nitrogen compound (ii) in water with the pH adjusted to 7-9.5, if necessary. […]
Sodium hypochlorite solutions were used directly at high concentration (12.2%).
Consistent with known ammonia and urea chemistry (vide supra), mixing a halogen source and ammonium salt solutions at Cl2:N ratios greater than 1 (e.g., 2-4) usually results in substantial exothermic temperature excursions (ΔT, in Kelvin) and reductions in pH due to decomposition reactions that occur.

[3] = high pH (12.4-13.4); Cl2:urea ratios of 1:1-2:1; WO 2007/089539 A2 / US 2007/0178173 A1; cited from earlier work
[4] = 15% active ingredients, Cl2:NH3 or Cl2:Urea 2
[5] = 15% active ingredients, Cl2:NH3 or Cl2:Urea 4
[6] = 17% active ingredients, Cl2:NH3 or Cl2:Urea 4
[7] = 5% active ingredients, Cl2:NH3 or Cl2:Urea 2.5
[8] = 15% active ingredients, Cl2:NH3 or Cl2:Urea 8

SMILES: CC1(C)NC(=O)NC1=O [DMH, 5,5-dimethylhydantoin]
- Efficacy (Δlg) ([1]; box paper pulp slurry): 0.1 Δlg
- Efficacy (Δlg) ([1]; fine paper pulp slurry (Table 3 series)): 3.2 Δlg
- Efficacy (Δlg) ([1]; fine paper pulp slurry (Table 4 series)): 2.9 Δlg

SMILES: Br.N [NH4Br, ammonium bromide]
- ΔpH [2, 4]: −9.5
- ΔpH [2, 5]: −5.3
- ΔpH [2, 6]: −5.3
- ΔT [2, 4]: 37 K
- ΔT [2, 5]: 31 K
- ΔT [2, 6]: 34 K

SMILES: NC(N)=O [Urea, urea]
- ΔpH [2, 7]: −0.5
- ΔpH [2, 8]: −0.7
- ΔT [2, 7]: 18 K
- ΔT [2, 8]: 36 K
- total halogen yield [3]: 48-69%
